From US20070197543A1, “Use of derivatives of 2, 5-dihydroxyb enzene-sulphonic acids in the elaboration of a medicinal product to enhance the effect of other drugs used for the treatment of erectile dysfunction” (Laboratorios del Dr. Esteve, S.A., priority 2001, published 2007)

Legend:
[1] = patients; variable in different patients; cited from earlier work
[2] = test system: nitrergic terminations in resistance arteries of the human penis; assay: Relaxation of human penile resistance arteries induced by transmural electrical stimulation of nitrergic terminations (myograph)
Experimental: (§1) To study the enhancing effect of medicinal products used to facilitate penile erection in man a series of studies were carried out of the resistance arteries of the human penis, obtained from patients submitted to penile prosthesis implantation.
(§2) Specimens of human cavernous bodies of the penis were obtained from patients with impotence while these were intervened for prosthetic implantation, as described previously (Gupta et al.; Br. J. Pharmacol., 116: 2201, 1995). The tissues were deposited in M-400 solution (pH 7.4; 400 mOsm/kg. Composition in w/v: 4.19% manitole, 0.2% KH2PO4, 0.97% K2HPO4.3 H2O, 0.11% KCl and 0.08% NaHCO3) at 4° C. at the moment of explant and were transported to the laboratory to be used within the following 16 h.
(§3) The resistance arteries of the penis, helicine arteries (with a luminal diameter of 150-400 μm), which are terminal branches of the deep arteries of the penis, were dissected carefully removing the surrounding trabecular tissue and were cut into 2 mm long arterial segments that were arranged on two wires of 40 μm diameter in a Halpern-Mulvany myograph (J.P. Trading, Aarhus, Denmark) to record […]. […] The arteries were contracted with 1 μM of noradrenaline and their relaxation responses were assessed after adding to the cavities increasing amounts of the different compounds. […]

[3] = test system: resistance arteries of the human penis; assay: Relaxation of noradrenaline-contracted human penile resistance arteries induced by sodium nitroprussiate (myograph); conditions: 10 μM; arteries contracted with 1 μM noradrenaline; FIG. 1
Experimental: as §1, §2, §3

[4] = test system: resistance arteries of the human penis; assay: Relaxation of noradrenaline-contracted human penile resistance arteries induced by sildenaphyl (myograph); conditions: 10 μM; arteries contracted with 1 μM noradrenaline; FIG. 2
Experimental: as §1, §2, §3

Row | SMILES | therapeutic response [1] | effect on the effects of 10 nM of sildenaphyl on the relaxation produced by electrical stimulation ([2]; 10 μM combined with 10 nM sildenaphyl, increasing frequencies, FIG. 4) | effect on the relaxation produced by electrical stimulation at increasing frequencies of the nitrergic terminations ([2]; 10 μM, TES 0.5, 1, 2 and 6 Hz, FIG. 3) | effect on the relaxation produced by different concentrations of sodium nitroprussiate (SNP) [3] | effect on the relaxation produced by different concentrations of sildenaphyl [4]
1 | CCCc1nn(C)c2c(=O)[nH]c(-c3cc(S(=O)(=O)N4CCN(C)CC4)ccc3OCC)nc12 [sildenaphyl] | ≤ 50% |  |  |  | 
2 | O=S(=O)([O-])c1cc(O)ccc1O.O=S(=O)([O-])c1cc(O)ccc1O.[Ca+2] [Calcium dobesylate, Calcium 2,5-dihidroxybenzenosulphonate] |  | increases, in a statistically significant manner, the effects of 10 nM of sildenaphyl | increases, in a statistically significant manner, the relaxation | increases, in a statistically significant manner, the relaxation | increases, in a statistically significant manner, the relaxation
